Source: PubChem BioAssay (NCI)
Several values for one entry are separate records, joined by “and”; a condition that tells them apart may be missing. Equal entries are not always repeated.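 Cells were grown in 96-well plates and exposed to each compound for 48 hours at five concentrations; endpoints were interpolated linearly between bracketing concentrations, or set to the highest concentration if not reached. GI50 = concentration required for 50% inhibition of growth. The concentration for full growth arrest is given as TGI.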

Key:
Test in all cases: NCI tumour cell line growth inhibition, 48 h
HOP-92 NSCLC = test system: HOP-92 NSCLC
KM12 colon = test system: KM12 colon
MOLT-4 leukemia = test system: MOLT-4 leukemia
NCI-H226 lung = test system: NCI-H226 lung
SK-MEL-5 melanoma = test system: SK-MEL-5 melanoma
SK-OV-3 ovarian = test system: SK-OV-3 ovarian
SNB-19 CNS = test system: SNB-19 CNS
TK-10 renal = test system: TK-10 renal
U251 CNS = test system: U251 CNS
UO-31 renal = test system: UO-31 renal

`CN(C[C@@H]1COCCO1)S(=O)(=O)Nc1ccc2ccc3ncc(-c4cnn(C)c4)cc3c(=O)c2c1` was tested, and the GI50 (HOP-92 NSCLC) was 2.25 µM, the TGI (HOP-92 NSCLC) was > 30.3 µM and the GI50 (KM12 colon) was 0.369 µM. For the same molecule, the TGI (KM12 colon) was > 100 µM, the GI50 (MOLT-4 leukemia) was 4.08 µM and the TGI (MOLT-4 leukemia) was > 91.3 µM. The GI50 (NCI-H226 lung) was 2.62 µM, the TGI (NCI-H226 lung) was > 100 µM and the GI50 (SK-MEL-5 melanoma) was 6.42 µM. The TGI (SK-MEL-5 melanoma) was > 100 µM, the GI50 (SK-OV-3 ovarian) was 3.04 µM and the TGI (SK-OV-3 ovarian) was > 100 µM. The GI50 (SNB-19 CNS) was 12.5 µM, the TGI (SNB-19 CNS) was > 100 µM and the GI50 (TK-10 renal) was 2.64 µM. The TGI (TK-10 renal) was > 100 µM, the GI50 (U251 CNS) was 2.34 µM and the TGI (U251 CNS) was > 100 µM. For the same molecule, the GI50 (UO-31 renal) was 1.95 µM and the TGI (UO-31 renal) was > 100 µM.

In the case of `CCC(C(=O)[O-])C(=O)[O-].CCC(C(=O)[O-])C(=O)[O-].N.N.NCCCCCCN.[Pt+4].[Pt+4]`, the GI50 (HOP-92 NSCLC) is reported as 1.24 µM, the TGI (HOP-92 NSCLC) is reported as 3.87 µM and the GI50 (KM12 colon) is reported as 8.83 µM. It also gave a TGI (KM12 colon) of 16.8 µM, a GI50 (MOLT-4 leukemia) of 1.18 µM and a TGI (MOLT-4 leukemia) of 2.94 µM. It also gave a GI50 (NCI-H226 lung) of 10 µM, a TGI (NCI-H226 lung) of 20.2 µM and a GI50 (SK-MEL-5 melanoma) of 3.35 µM. It also gave a TGI (SK-MEL-5 melanoma) of 9.46 µM, a GI50 (SK-OV-3 ovarian) of 10.3 µM and a TGI (SK-OV-3 ovarian) of 18.3 µM. For the same molecule, the GI50 (SNB-19 CNS) was 10.3 µM, the TGI (SNB-19 CNS) was 21.9 µM and the GI50 (TK-10 renal) was 8.23 µM. It also gave a TGI (TK-10 renal) of 15.1 µM, a GI50 (U251 CNS) of 8.8 µM and a TGI (U251 CNS) of 16.5 µM. The GI50 (UO-31 renal) was 7.06 µM and the TGI (UO-31 renal) was 13.6 µM.

With `O=C(OCc1ccc2c(Cl)cc(Cl)c(O)c2n1)c1cc2ccccc2[nH]1` the GI50 (HOP-92 NSCLC) was 0.228 µM, the TGI (HOP-92 NSCLC) was 0.722 µM and the GI50 (KM12 colon) was 1.69 µM. For the same molecule, the TGI (KM12 colon) was 3.38 µM, the GI50 (MOLT-4 leukemia) was 0.407 µM and the TGI (MOLT-4 leukemia) was 2.35 µM. For the same molecule, the GI50 (NCI-H226 lung) was 1.48 µM, the TGI (NCI-H226 lung) was 3.07 µM and the GI50 (SK-MEL-5 melanoma) was 1.33 µM. It also gave a TGI (SK-MEL-5 melanoma) of 2.63 µM, a GI50 (SK-OV-3 ovarian) of 3.6 µM and a TGI (SK-OV-3 ovarian) of 13.3 µM. It also gave a GI50 (SNB-19 CNS) of 1.59 µM, a TGI (SNB-19 CNS) of 2.99 µM and a GI50 (TK-10 renal) of 0.553 µM. For the same molecule, the TGI (TK-10 renal) was 1.47 µM, the GI50 (U251 CNS) was 1.61 µM and the TGI (U251 CNS) was 3.22 µM. The GI50 (UO-31 renal) was 0.164 µM and the TGI (UO-31 renal) was 0.331 µM.

In the case of `c1ccc(COCC2OC3c4ccccc4COC3C2OCc2ccccc2)cc1` (configuration not stated), the TGI (HOP-92 NSCLC) is reported as 87.1 µM, the TGI (KM12 colon) is reported as > 100 µM and the TGI (MOLT-4 leukemia) is reported as > 100 µM. The TGI (NCI-H226 lung) was > 100 µM, the TGI (SK-MEL-5 melanoma) was > 100 µM and the TGI (SK-OV-3 ovarian) was > 100 µM. The TGI (SNB-19 CNS) was > 100 µM, the TGI (TK-10 renal) was > 100 µM and the TGI (U251 CNS) was > 100 µM. The TGI (UO-31 renal) was > 100 µM.

Work on `C[C@H]1C(Oc2ccc(O)cc2)OC2OC3(C)CCC4[C@H](C)CCC1C24OO3` (some centres not stated) yielded a GI50 (HOP-92 NSCLC) of 11.5 µM, a TGI (HOP-92 NSCLC) of 25 µM and a GI50 (KM12 colon) of 11.4 µM. The TGI (KM12 colon) was > 82.1 µM, the TGI (MOLT-4 leukemia) was > 63.6 µM and the GI50 (NCI-H226 lung) was 15.9 µM. The TGI (NCI-H226 lung) was 31.2 µM, the GI50 (SK-MEL-5 melanoma) was 13.2 µM and the TGI (SK-MEL-5 melanoma) was 27.3 µM. The GI50 (SK-OV-3 ovarian) was 21.1 µM, the TGI (SK-OV-3 ovarian) was 47.8 µM and the GI50 (SNB-19 CNS) was 17.1 µM. For the same molecule, the TGI (SNB-19 CNS) was 36.5 µM, the GI50 (TK-10 renal) was 15.9 µM and the TGI (TK-10 renal) was 37.8 µM. For the same molecule, the GI50 (U251 CNS) was 11 µM, the TGI (U251 CNS) was 25.8 µM and the GI50 (UO-31 renal) was 11 µM. The TGI (UO-31 renal) was 26.2 µM.

For `O=C([O-])c1ccc(C(=O)[O-])cc1.O=C([O-])c1ccc(C(=O)[O-])cc1.[Mo+2].[Mo+2]`, the GI50 (HOP-92 NSCLC) was 99.8 µM, the TGI (HOP-92 NSCLC) was > 100 µM and the GI50 (KM12 colon) was > 100 µM. The TGI (KM12 colon) was > 100 µM, the GI50 (MOLT-4 leukemia) was > 100 µM and the TGI (MOLT-4 leukemia) was > 100 µM. For the same molecule, the GI50 (NCI-H226 lung) was > 100 µM, the TGI (NCI-H226 lung) was > 100 µM and the GI50 (SK-MEL-5 melanoma) was > 100 µM. The TGI (SK-MEL-5 melanoma) was > 100 µM, the GI50 (SK-OV-3 ovarian) was > 100 µM and the TGI (SK-OV-3 ovarian) was > 100 µM. The GI50 (SNB-19 CNS) was > 100 µM, the TGI (SNB-19 CNS) was > 100 µM and the GI50 (TK-10 renal) was > 100 µM. The TGI (TK-10 renal) was > 100 µM, the GI50 (U251 CNS) was > 100 µM and the TGI (U251 CNS) was > 100 µM. The GI50 (UO-31 renal) was > 100 µM and the TGI (UO-31 renal) was > 100 µM.

`O=C1/C(=C/c2ccccc2)CN(C(=O)OCc2ccccc2)C/C1=C\c1ccccc1` was tested, and the TGI (HOP-92 NSCLC) was > 100 µM, the GI50 (KM12 colon) was 2.68 µM and the TGI (KM12 colon) was 14.8 µM. The GI50 (MOLT-4 leukemia) was 2.18 µM, the TGI (MOLT-4 leukemia) was 7.49 µM and 19 µM and the TGI (NCI-H226 lung) was 35.2 µM. The GI50 (SK-MEL-5 melanoma) was 3.44 µM, the TGI (SK-MEL-5 melanoma) was 30.7 µM and the TGI (SK-OV-3 ovarian) was 40.5 µM. The TGI (SNB-19 CNS) was > 46.4 µM, the TGI (TK-10 renal) was > 46.2 µM and the TGI (U251 CNS) was 17.8 µM. The TGI (UO-31 renal) was 24 µM.

With `CCC1CCc2nc3sc(C(=O)Nc4ccccc4C)c(N)c3cc2C1` (configuration not stated) the GI50 (HOP-92 NSCLC) was 0.637 µM, the TGI (HOP-92 NSCLC) was > 100 µM and the GI50 (KM12 colon) was 0.502 µM. The TGI (KM12 colon) was > 100 µM, the GI50 (MOLT-4 leukemia) was 0.661 µM and the TGI (MOLT-4 leukemia) was > 100 µM. The GI50 (NCI-H226 lung) was > 100 µM, the TGI (NCI-H226 lung) was > 100 µM and the GI50 (SK-MEL-5 melanoma) was 0.301 µM. The TGI (SK-MEL-5 melanoma) was > 100 µM, the GI50 (SK-OV-3 ovarian) was 0.855 µM and the TGI (SK-OV-3 ovarian) was > 100 µM. The GI50 (SNB-19 CNS) was 0.911 µM, the TGI (SNB-19 CNS) was > 100 µM and the GI50 (TK-10 renal) was 0.833 µM. The TGI (TK-10 renal) was > 100 µM, the GI50 (U251 CNS) was 0.648 µM and the TGI (U251 CNS) was > 100 µM. The GI50 (UO-31 renal) was 0.998 µM and the TGI (UO-31 renal) was > 100 µM.

`CCN1C(=O)N(c2ccccc2)C2NN=c3s/c(=C4\C(=O)N(C(C)C)c5ccccc54)c(=O)n3C21` (configuration not stated) was tested, and the GI50 (HOP-92 NSCLC) was 1.44 µM, the TGI (HOP-92 NSCLC) was > 43.5 µM and the GI50 (KM12 colon) was 0.977 µM. For the same molecule, the TGI (KM12 colon) was > 100 µM, the GI50 (MOLT-4 leukemia) was 1.58 µM and the TGI (MOLT-4 leukemia) was > 100 µM. The GI50 (NCI-H226 lung) was 3.7 µM, the TGI (NCI-H226 lung) was 31.4 µM and the GI50 (SK-MEL-5 melanoma) was 1.04 µM. The TGI (SK-MEL-5 melanoma) was 15.5 µM, the GI50 (SK-OV-3 ovarian) was 1.07 µM and the TGI (SK-OV-3 ovarian) was > 100 µM. For the same molecule, the GI50 (SNB-19 CNS) was 2.1 µM, the TGI (SNB-19 CNS) was > 100 µM and the GI50 (TK-10 renal) was 4.84 µM. The TGI (TK-10 renal) was 49.5 µM, the GI50 (U251 CNS) was 1.44 µM and the TGI (U251 CNS) was > 51.6 µM. The GI50 (UO-31 renal) was 2.35 µM and the TGI (UO-31 renal) was > 100 µM.

With `COc1ccccc1S(=O)(=O)Nc1ccc2c(c1)CN(C)C(=O)N2` the GI50 (HOP-92 NSCLC) was 2.22 µM and 1.18 µM, the TGI (HOP-92 NSCLC) was > 51.9 µM and 71.6 µM and the GI50 (KM12 colon) was 14.6 µM and 7.41 µM. The TGI (KM12 colon) was > 100 µM, the GI50 (MOLT-4 leukemia) was 11 µM and 12.7 µM and the TGI (MOLT-4 leukemia) was > 100 µM. For the same molecule, the GI50 (NCI-H226 lung) was 9.98 µM and 16 µM, the TGI (NCI-H226 lung) was > 100 µM and the GI50 (SK-MEL-5 melanoma) was 3.88 µM and 4.42 µM. For the same molecule, the TGI (SK-MEL-5 melanoma) was > 100 µM, the GI50 (SK-OV-3 ovarian) was 4.47 µM and 5.15 µM and the TGI (SK-OV-3 ovarian) was > 100 µM. For the same molecule, the GI50 (SNB-19 CNS) was 7.3 µM and 5.07 µM, the TGI (SNB-19 CNS) was > 100 µM and the GI50 (TK-10 renal) was 2.14 µM and 1.45 µM. The TGI (TK-10 renal) was > 95.5 µM and 50 µM, the GI50 (U251 CNS) was 14.1 µM and 13.2 µM and the TGI (U251 CNS) was > 100 µM. The GI50 (UO-31 renal) was 1.41 µM and 1.05 µM and the TGI (UO-31 renal) was > 100 µM.
